# Earlier results as cited in US5124083A, “3-substituted and 3,3-disubstituted 4-oxoretinoic acids and their esters” (Southern Research Institute, priority 1990, dated 1992).
# Legend:
# [1] = tested on: mammary carcinogenesis; settings: rats; Moon et al.; cited from earlier work
# [2] = tested on: tracheas obtained from vitamin A-deficient hamsters; settings: value taken from Newton et al.; read-out: ED50, hamster trachea organ culture assay; cited from earlier work
# [3] = tested on: certain neoplastic cells; settings: literature; cited from earlier work
# [4] = tested on: pre-neoplastic and malignant epithelial lesions; settings: literature; cited from earlier work
# [5] = Roberts and Frolik, Roberts et al.; cited from earlier work
smiles,measurement,setting,value
CC1=C(/C=C/C(C)=C/C=C/C(C)=C\C(=O)Nc2ccc(O)cc2)C(C)(C)CCC1 [13-Cis-N-(4-hydroxyphenyl)-retinamide],Suppression of mammary carcinogenesis,[1],suppress mammary carcinogenesis in rats
same,EC50,[2],> 1 nM
CC1=C(/C=C/C(C)=C/C=C/C(C)=C\C(=O)O)C(C)(C)CCC1 [13-cis-retinoic acid],Induction of differentiation of certain neoplastic cells to terminally differentiated cells,[3],highly active inducers of differentiation
same,Prophylactic effect on development of pre-neoplastic and malignant epithelial lesions,[4],exert a prophylactic effect
CC1=C(/C=C/C(C)=C/C=C/C(C)=C/C(=O)NCCO)C(C)(C)CCC1 [All-trans-N-(2-hydroxyethyl)-retinamide],EC50,[2],0.1 nM
CC1=C(/C=C/C(C)=C/C=C/C(C)=C/C(=O)Nc2ccc(O)cc2)C(C)(C)CCC1 [All-trans-N-(4-hydroxyphenyl)-retinamide],Suppression of mammary carcinogenesis,[1],suppress mammary carcinogenesis in rats
same,EC50,[2],0.3 nM
CCNC(=O)/C=C(C)/C=C/C=C(C)/C=C/C1=C(C)CCCC1(C)C [All-trans-N-ethylretinamide],EC50,[2],1 nM
CC1=C(/C=C/C(C)=C/C=C/C(C)=C/C(=O)O)C(C)(C)CCC1=O [all-trans-4-oxoretinoic acid],Metabolite identity,[5],one of the metabolites of all-trans-retinoic acid
CC1=C(/C=C/C(C)=C/C=C/C(C)=C/C(=O)O)C(C)(C)CCC1 [all-trans-retinoic acid],Induction of differentiation of certain neoplastic cells to terminally differentiated cells,[3],highly active inducers of differentiation
same,Prophylactic effect on development of pre-neoplastic and malignant epithelial lesions,[4],exert a prophylactic effect
